We go through one molecule from US20250090439A1, “COMPOSITION COMPRISING HYDRANGENOL AS ACTIVE INGREDIENT FOR IMPROVING HAIR OR SCALP CONDITION” (COSMAX BIO CO., LTD., priority 2021, published 2025).

The subject of one data set is HFDPC cell lines. As to the kind of experiment: Cell proliferation in dermal papilla cells (MTT assay). To be noted: treated for 3 and 6 days, 25 μg/ml and 50 μg/ml. Type of data set: cell-based, human. On the procedure: Based on the results of the dermal papilla cell toxicity test confirmed above, the cell proliferation effect of the Hydrangea serrata extract and hydrangenol obtained in Examples 1 and 2 was confirmed. HFDPC cell lines were seeded into a 96-well plate at a concentration of 1.0×10^3 cells/well and incubated in a CO2 incubator conditioned at 37° C., 95% humidity, and 5% CO2 for 24 hours. Subsequently, after treatment with samples at each concentration, cell proliferation was measured by MTT assay after 1, 3, and 6 days of incubation. More specifically, after treatment with samples of each concentration, the incubation was proceeded for 24, 72, and 144 hours, and then each cell was treated with 100 μl of 0.5 mg/ml MTT solution, and after 4 hours, the solution was completely removed and the plates dissolved in DMSO were measured at an absorbance of […].

In a further data set the target is T1, 5α-reductase (Rattus norvegicus, UniProt P24008).
T1 construct: After centrifuging the homogenate at 10,000 xg for 10 minutes, the supernatant was […] to prepare an enzyme solution; from tissue; host or cells: liver of 7-week-old male SD rat (10,000 x g supernatant of homogenate)
T1 sequence (P24008 1-259): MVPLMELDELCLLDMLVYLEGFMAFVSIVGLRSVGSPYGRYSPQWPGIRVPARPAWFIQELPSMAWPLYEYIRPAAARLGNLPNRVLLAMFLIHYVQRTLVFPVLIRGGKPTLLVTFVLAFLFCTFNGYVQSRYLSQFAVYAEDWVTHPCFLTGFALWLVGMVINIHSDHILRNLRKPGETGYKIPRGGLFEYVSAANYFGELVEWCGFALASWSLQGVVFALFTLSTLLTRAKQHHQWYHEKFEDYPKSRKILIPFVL
As to the kind of experiment: 5α-reductase enzyme activity inhibition (rat liver homogenate, testosterone quantified by HPLC). The conditions noted are these: treated at 125 μg/ml, 250 μg/ml, or 500 μg/ml; 37° C., 30 minutes; FIGS. 7A and 7B. Type of data set: biochemical. On the procedure: 5α-reductase reduces testosterone to produce dihydrotestosterone (DHT). After reacting rat liver homogenate with testosterone, the ability to inhibit 5α-reductase enzyme activity was measured using a method of quantify testosterone.
First, a 7-week-old male SD rat was prepared and anesthetized using ethyl ether. After SD rats were laparotomised, the hepatic portal vein thereof was nicked, and cold STM buffer (270 mM sucrose, 10 mM Tris-HCl, pH7.5, 1 mM MgCl2, G-biosciences, USA) was injected into the left ventricle using a syringe. The injection was continued until the STM buffer was perfused into the liver and the color of the liver changed from dark red to light pink. Afterwards, the liver was removed, transferred to a beaker, cut with scissors, and homogenized after adding STM buffer in an amount three times that of the liver. After centrifuging the homogenate at 10,000 xg for 10 minutes, the supernatant was […] to prepare an enzyme solution. […] The dichloromethane layer was separated, concentrated, dissolved in 50% methanol, and quantified using high-performance chromatography. The 5α-reductase inhibition ability was calculated using the formula: 5α-reductase inhibition ability (%)=[1−(area value of sample-area value of blank sample)/(area value of test group-area value of blank sample)]×100.

The test system of data set [1] is human follicle dermal papilla cells (HFDPC). The data set is described as follows: Cytotoxicity in dermal papilla cells (MTT assay). The conditions noted are these: 24 hours. Type of data set: cell-based. As to the method: It was confirmed whether the Hydrangea serrata extract and hydrangenol obtained according to Examples 1 and 2 were cytotoxic to human follicle dermal papilla cells (HFDPC).
HFDPC cells were cultured in follicle dermal papilla cell growth medium including supplement mix (5% fetal calf serum, 0.5% bovine pituitary extract, 0.5 μg basic fibroblast growth factor, and 2.5 mg insulin) and 1% antibiotic antimycotic solution. HDFPC cell lines were seeded into a 96-well plate at a concentration of 1.0×10^4 cells/well and incubated in a CO2 incubator conditioned at 37° C., 95% humidity, and 5% CO2 for 24 hours. Subsequently, the medium was replaced with medium without supplement mix and was treated with samples of each concentration and after 24 hours of incubation, cell viability was measured by MTT assay. The MTT assay is a method to measure the amount of formazan formed from MTT reduced by the mitochondria of living cells. More specifically, 100 μl of 0.5 mg/mL MTT solution was applied to each cell and incubated for 4 hours. Then, the solution was completely removed and the absorbance of the plate dissolved in DMSO was measured at 540 nm.

Turning to `O=C1OC(c2ccc(O)cc2)Cc2cccc(O)c21` (stereo not shown) [hydrangenol, 8-hydroxy-3-(4-hydroxyphenyl)-3,4-dihydroisochromen-1-one], in the data set with HFDPC cell lines, the “cell growth (cell proliferation by MTT)” value is given as “cell growth was significantly increased”. Moreover, the 5α-reductase inhibitory activity at 5α-reductase was 5α-reductase inhibitory activity in a concentration-dependent manner. Besides, the “cytotoxicity (cell viability by MTT)” value in data set [1] (1.56, 3.12, 6.25, 12.5, 25, 50 and 100 μg/ml) is on record as “no cytotoxicity was shown at all concentrations”. In addition, the cell growth result in data set [1] (concentrations of 3.12 μg/ml to 100 μg/ml) is reported as “significantly increase cell growth”.
